Test results taken from patent US20220370440A1 (Lead Discovery Center GmbH, priority 2018, published 2022).

Experiments:
EGFR wt = EGFR wt (Homo sapiens, UniProt P00533); test: EGFR wt Lance assay; type: biochemical
Method: (§1) Inhibition is indicated as […] [nM] (“−”=not measured). Compounds having an activity designated as “A” provided an IC50≤100 nM; compounds having an activity designated as “B” provided an 100 nM<IC50≤500 nM; compounds having an activity designated as “C” provided an 500 nM<IC50≤1000 nM; compounds having an activity designated as “D” provided an 1000 nM<IC50≤100000 nM; and compounds having an activity designated as “E” provided an IC50>10000 nM.

EGFR T790ML858R = EGFR T790ML858R (Homo sapiens, UniProt P00533, L858R/T790M); test: EGFR T790ML858R Lance assay; type: biochemical
Method: as §1

HER2 INS YVMA = biological target: T1, HER2 INS YVMA (Homo sapiens, UniProt P04626, INS775YVMA); test: Lance Kinase Activity Assay, HER2 INS YVMA (Her2 Exon 20 INSYVMA Lance); type: biochemical; details: biochemical Lance assay
T1 construct: purchased DPF
Procedure, shortened: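 IC50 was fitted to sigmoidal curves of TR-FRET signal (665 and 615 nm emission after 340 nm excitation) from an Eu anti-phospho antibody binding the phosphorylated ULight peptide. The ATP-started reaction ran 1 h at RT and was then quenched with 10 mM EDTA plus antibody for a further 1 h. Compounds were tested as 8-point, 3-fold dilutions.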

[1] = biological target: EGFR Exon 20 INSNPH Ba/F3 (Homo sapiens, UniProt P00533, DUP771-773, cells depend on it); test: EGFR Exon 20 INSNPH Ba/F3 CellTiter-Glo; type: cell-based; details: CellTiter-Glo, 72 h, read-out: EGFR Exon 20 INSNPH Ba/F3 CTG IC50
Procedure, shortened: (§2)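 Seed Ba/F3 cells; 24 h, 37 °C/5% CO2. Add cpds in DMSO, multiple concs; 72 h. CellTiter-Glo, 10 min RT, luminescence. IC50 by curve fit. Z′ ≥0.5 from DMSO vs 10 μM staurosporine.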

A431 = A431 CellTiter-Glo; type: cell-based; details: Homo sapiens, A-431; 72 h compound incubation; read-out: A431 CTG IC50
Procedure, shortened: (§3)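 72 h compound exposure after 24 h attachment, 37° C./5% CO2; CellTiter-Glo ATP luminescence read-out; IC50 by dose-response fit; DMSO vehicle and 10 μM Staurosporine as controls; plates accepted only if Z′ ≥0.5.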

[2] = biological target: Her2 Exon 20 INSYVMA Ba/F3 (Homo sapiens, UniProt P04626, DUP772-775, cells depend on it); test: Her2 Exon 20 INSYVMA Ba/F3 CellTiter-Glo; type: cell-based; details: CellTiter-Glo, 72 h, read-out: Her2 Exon 20 INSYVMA Ba/F3 CTG IC50
Procedure, shortened: as §2

H1975 = H1975 CellTiter-Glo; type: cell-based; details: Homo sapiens, NCI-H1975; 72 h compound incubation; read-out: H1975 CTG IC50
Procedure, shortened: as §3

T1 sequence (P04626 with tags, fused parts or gaps INS775YVMA): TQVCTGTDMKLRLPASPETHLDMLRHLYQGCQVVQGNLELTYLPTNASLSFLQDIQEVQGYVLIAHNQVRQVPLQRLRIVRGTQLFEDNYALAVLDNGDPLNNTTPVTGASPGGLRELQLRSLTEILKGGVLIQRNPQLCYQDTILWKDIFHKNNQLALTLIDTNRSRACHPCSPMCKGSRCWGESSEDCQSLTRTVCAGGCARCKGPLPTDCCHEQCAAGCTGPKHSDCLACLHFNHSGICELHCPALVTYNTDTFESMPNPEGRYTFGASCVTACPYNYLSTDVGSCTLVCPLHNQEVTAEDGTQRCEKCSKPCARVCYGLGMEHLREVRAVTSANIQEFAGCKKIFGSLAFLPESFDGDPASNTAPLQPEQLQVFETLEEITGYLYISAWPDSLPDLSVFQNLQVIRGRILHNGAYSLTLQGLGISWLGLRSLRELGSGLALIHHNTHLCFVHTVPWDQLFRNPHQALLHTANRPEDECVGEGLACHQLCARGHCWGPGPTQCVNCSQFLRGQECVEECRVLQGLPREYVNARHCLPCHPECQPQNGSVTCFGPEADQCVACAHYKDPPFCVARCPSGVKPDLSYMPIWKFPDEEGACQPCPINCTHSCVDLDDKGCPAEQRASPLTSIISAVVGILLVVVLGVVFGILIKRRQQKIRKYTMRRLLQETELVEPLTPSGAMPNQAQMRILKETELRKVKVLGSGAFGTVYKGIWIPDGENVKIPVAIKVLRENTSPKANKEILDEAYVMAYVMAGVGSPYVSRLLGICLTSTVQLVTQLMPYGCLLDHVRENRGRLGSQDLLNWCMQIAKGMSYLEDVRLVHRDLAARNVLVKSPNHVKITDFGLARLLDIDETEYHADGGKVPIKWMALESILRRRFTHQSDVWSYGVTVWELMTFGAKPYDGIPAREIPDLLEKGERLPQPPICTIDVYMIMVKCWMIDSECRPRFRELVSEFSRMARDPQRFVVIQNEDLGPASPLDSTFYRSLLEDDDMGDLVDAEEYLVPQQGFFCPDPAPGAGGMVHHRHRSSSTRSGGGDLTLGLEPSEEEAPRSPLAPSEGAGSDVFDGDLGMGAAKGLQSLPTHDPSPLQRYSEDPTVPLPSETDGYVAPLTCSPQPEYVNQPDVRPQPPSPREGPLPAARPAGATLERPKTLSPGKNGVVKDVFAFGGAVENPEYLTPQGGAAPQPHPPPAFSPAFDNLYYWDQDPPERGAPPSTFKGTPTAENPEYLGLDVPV
Sequence of EGFR T790ML858R (P00533 25-1210 T790M/L858R): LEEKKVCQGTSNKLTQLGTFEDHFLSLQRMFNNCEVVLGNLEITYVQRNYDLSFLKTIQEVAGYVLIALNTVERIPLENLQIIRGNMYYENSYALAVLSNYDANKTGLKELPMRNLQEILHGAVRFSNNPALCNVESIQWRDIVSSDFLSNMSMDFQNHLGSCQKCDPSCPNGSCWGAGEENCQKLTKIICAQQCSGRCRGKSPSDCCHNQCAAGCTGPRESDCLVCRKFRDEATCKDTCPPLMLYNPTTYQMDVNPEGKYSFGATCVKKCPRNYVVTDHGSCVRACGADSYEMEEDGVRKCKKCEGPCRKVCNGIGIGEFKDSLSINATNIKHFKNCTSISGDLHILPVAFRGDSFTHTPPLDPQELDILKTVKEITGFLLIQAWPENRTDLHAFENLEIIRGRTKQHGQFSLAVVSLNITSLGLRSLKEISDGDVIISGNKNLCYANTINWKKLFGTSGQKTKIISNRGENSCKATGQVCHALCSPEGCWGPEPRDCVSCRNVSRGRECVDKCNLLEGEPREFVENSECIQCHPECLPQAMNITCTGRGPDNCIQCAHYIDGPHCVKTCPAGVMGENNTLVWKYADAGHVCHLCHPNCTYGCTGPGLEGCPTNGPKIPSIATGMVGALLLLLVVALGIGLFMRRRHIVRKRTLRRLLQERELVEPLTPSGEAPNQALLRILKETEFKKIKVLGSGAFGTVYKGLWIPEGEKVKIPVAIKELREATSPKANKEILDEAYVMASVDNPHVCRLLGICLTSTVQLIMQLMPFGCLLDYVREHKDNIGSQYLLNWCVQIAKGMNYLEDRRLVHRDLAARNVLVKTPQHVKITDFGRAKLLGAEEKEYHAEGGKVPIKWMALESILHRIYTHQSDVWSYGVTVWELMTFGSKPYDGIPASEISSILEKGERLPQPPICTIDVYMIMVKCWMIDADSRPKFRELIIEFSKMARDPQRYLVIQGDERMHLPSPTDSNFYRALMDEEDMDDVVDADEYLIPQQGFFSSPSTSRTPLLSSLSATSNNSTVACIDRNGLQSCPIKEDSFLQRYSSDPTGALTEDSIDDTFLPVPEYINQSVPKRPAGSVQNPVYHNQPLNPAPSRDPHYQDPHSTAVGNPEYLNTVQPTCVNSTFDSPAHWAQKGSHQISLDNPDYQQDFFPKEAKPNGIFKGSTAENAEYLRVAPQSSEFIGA
Sequence of EGFR wt (P00533 25-1210): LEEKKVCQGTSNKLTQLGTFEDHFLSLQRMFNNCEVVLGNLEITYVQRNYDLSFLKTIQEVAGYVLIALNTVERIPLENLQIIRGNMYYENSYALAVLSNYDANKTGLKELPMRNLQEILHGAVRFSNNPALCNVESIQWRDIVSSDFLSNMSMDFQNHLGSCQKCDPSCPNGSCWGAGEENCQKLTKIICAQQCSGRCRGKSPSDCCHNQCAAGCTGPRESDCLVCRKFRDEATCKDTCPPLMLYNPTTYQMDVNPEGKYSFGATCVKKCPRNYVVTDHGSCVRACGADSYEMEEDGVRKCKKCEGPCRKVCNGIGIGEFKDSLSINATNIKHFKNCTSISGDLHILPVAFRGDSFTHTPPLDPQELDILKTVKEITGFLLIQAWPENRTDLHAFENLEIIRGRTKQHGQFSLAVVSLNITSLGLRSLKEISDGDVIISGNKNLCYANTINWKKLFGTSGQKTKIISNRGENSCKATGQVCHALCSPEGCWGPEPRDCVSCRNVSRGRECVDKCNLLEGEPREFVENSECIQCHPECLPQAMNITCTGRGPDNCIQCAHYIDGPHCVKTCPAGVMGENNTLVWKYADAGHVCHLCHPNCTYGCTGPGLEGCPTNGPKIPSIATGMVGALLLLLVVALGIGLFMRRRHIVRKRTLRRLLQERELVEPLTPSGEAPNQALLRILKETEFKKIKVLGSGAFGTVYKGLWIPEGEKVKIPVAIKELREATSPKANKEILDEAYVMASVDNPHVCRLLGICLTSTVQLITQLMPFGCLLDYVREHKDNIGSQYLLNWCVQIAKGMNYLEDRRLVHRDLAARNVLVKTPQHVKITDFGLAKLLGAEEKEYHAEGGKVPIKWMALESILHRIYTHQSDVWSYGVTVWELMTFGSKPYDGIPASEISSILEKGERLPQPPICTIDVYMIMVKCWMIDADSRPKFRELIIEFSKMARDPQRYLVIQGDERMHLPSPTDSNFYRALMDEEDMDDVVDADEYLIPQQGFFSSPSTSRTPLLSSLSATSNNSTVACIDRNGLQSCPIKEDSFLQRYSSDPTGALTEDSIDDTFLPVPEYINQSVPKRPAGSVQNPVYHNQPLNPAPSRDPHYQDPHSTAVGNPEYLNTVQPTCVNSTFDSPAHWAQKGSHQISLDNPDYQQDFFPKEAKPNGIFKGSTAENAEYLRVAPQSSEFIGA
Sequence of EGFR Exon 20 INSNPH Ba/F3 (P00533 with tags, fused parts or gaps DUP771-773): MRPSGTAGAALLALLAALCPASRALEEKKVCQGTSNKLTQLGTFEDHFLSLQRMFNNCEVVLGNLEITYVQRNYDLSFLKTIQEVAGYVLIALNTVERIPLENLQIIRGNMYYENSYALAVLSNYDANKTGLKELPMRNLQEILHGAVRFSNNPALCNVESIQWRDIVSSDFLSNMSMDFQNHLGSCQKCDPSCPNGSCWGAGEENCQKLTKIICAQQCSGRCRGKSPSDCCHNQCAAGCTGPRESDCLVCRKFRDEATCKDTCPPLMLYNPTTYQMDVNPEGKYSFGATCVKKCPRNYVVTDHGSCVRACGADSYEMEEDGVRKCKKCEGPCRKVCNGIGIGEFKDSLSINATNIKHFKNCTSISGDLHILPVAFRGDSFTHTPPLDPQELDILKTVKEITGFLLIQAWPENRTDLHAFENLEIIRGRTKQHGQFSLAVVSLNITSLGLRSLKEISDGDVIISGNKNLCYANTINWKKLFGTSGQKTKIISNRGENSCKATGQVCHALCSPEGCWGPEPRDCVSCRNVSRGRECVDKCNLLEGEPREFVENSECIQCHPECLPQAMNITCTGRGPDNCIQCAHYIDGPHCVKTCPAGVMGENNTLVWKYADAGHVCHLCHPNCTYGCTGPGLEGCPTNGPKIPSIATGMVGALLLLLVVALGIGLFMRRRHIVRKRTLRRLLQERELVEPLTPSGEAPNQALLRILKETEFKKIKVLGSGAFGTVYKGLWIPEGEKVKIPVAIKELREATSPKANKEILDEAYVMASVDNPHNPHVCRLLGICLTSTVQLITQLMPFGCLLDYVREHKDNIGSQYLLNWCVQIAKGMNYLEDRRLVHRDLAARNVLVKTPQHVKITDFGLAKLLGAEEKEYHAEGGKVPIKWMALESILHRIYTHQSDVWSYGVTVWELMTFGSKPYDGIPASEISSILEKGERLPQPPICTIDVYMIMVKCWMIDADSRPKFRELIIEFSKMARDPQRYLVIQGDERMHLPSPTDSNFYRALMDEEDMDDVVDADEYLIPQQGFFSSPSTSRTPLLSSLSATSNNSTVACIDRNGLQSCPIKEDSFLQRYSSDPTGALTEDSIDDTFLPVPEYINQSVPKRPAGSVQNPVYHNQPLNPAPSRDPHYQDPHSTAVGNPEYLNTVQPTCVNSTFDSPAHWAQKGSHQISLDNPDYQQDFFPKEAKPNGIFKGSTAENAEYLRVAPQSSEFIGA

Compound | IC50 (EGFR wt) [nM] | IC50 (EGFR T790ML858R) [nM] | IC50 (HER2 INS YVMA) [nM] | GI50 [1] [nM] | IC50 (A431) [nM] | GI50 [2] [nM] | IC50 (H1975) [nM]
C=CC(=O)Nc1cc(-c2c(-c3ccc(N4CCN(C)CC4)cc3)[nH]c3ncc(CC(=O)OC4COC4)cc23)ccc1C [Example 197, oxetan-3-yl 2-(3-(3-acrylamido-4-methylphenyl)-2-(4-(4-methylpiperazin-1-yl)phenyl)-1H-pyrrolo[2,3-b]pyridin-5-yl)acetate] | ≤ 100 | ≤ 100 | ≤ 100 | 100 to 500 | 1000 to 100000 | 1000 to 10000 | 500 to 1000
Cc1ccc(-c2c(-c3ccc(N4CCN(C)CC4)cc3)[nH]c3nccc(Cl)c23)cc1NC(=O)/C=C/CN(C)C [Example 143, (E)-N-(5-(4-chloro-2-(4-(4-methylpiperazin-1-yl)phenyl)-1H-pyrrolo[2,3-b]pyridin-3-yl)-2-methylphenyl)-4-(dimethylamino)but-2-enamide 2,2,2-trifluoroacetate] | ≤ 100 | ≤ 100 | ≤ 100 | 100 to 500 | 1000 to 100000 | 100 to 500 | 100 to 500
C=CC(=O)Nc1cc(-c2c(-c3ccc(C4CCN(C)CC4)cc3)[nH]c3nccc(Cl)c23)cc(C)c1C [Example 152, N-(5-(4-chloro-2-(4-(1-methylpiperidin-4-yl)phenyl)-1H-pyrrolo[2,3-b]pyridin-3-yl)-2,3-dimethylphenyl)acrylamide] | ≤ 100 | ≤ 100 | ≤ 100 | 100 to 500 | 500 to 1000 | 100 to 500 | ≤ 100
C=CC(=O)Nc1cc(-c2c(-c3ccnc(N4CCN(C)CC4)c3)[nH]c3ncc(C(=O)OC(C)C)cc23)cc(F)c1C [Example 180, isopropyl 3-(3-acrylamido-5-fluoro-4-methylphenyl)-2-(2-(4-methylpiperazin-1-yl)pyridin-4-yl)-1H-pyrrolo[2,3-b]pyridine-5-carboxylate] | ≤ 100 | ≤ 100 | ≤ 100 | 100 to 500 | 1000 to 100000 | 100 to 500 | 500 to 1000
C=CC(=O)Nc1cc(-c2c(-c3ccc(N4CCN(C)CC4)cc3)[nH]c3ncc(CC(=O)N(C)C)cc23)ccc1C [Example 194, N-(5-(5-(2-(dimethylamino)-2-oxoethyl)-2-(4-(4-methylpiperazin-1-yl)phenyl)-1H-pyrrolo[2,3-b]pyridin-3-yl)-2-methylphenyl)acrylamide 2,2,2-trifluoroacetate] | ≤ 100 | ≤ 100 | ≤ 100 | 1000 to 10000 | 1000 to 100000 | 1000 to 10000 | 1000 to 100000
C=CC(=O)Nc1cc(-c2c(-c3cnc(N4CCN(C)CC4)s3)[nH]c3ncc(C(=O)OC(C)C)cc23)ccc1C [Example 169, isopropyl 3-(3-acrylamido-4-methylphenyl)-2-(2-(4-methylpiperazin-1-yl)thiazol-5-yl)-1H-pyrrolo[2,3-b]pyridine-5-carboxylate] | ≤ 100 | ≤ 100 | ≤ 100 | 100 to 500 | 1000 to 100000 | 500 to 1000 | 1000 to 100000
C=CC(=O)Nc1cc(-c2c(-c3cccc(OCCCN(C)C)c3)[nH]c3ncc(C(=O)OC(C)C)cc23)ccc1C [Example 183, isopropyl 3-(3-acrylamido-4-methylphenyl)-2-(3-(3-(dimethylamino)propoxy)phenyl)-1H-pyrrolo[2,3-b]pyridine-5-carboxylate] | ≤ 100 | ≤ 100 | ≤ 100 | 100 to 500 | 1000 to 100000 | 100 to 500 | 100 to 500
C=CC(=O)N1CCOc2ccc(-c3c(-c4ccc(OCCN5CCCC5)cc4)[nH]c4nccc(Cl)c34)cc21 [Example 101, 1-(6-(4-chloro-2-(4-(2-(pyrrolidin-1-yl)ethoxy)phenyl)-1H-pyrrolo[2,3-b]pyridin-3-yl)-2H-benzo[b][1,4]oxazin-4(3H)-yl)prop-2-en-1-one] | ≤ 100 | ≤ 100 | ≤ 100 | 100 to 500 | 1000 to 100000 | 100 to 500 | 100 to 500
C=CC(=O)Nc1cc(-c2c(-c3ccc(N4CCN(C)CC4)cc3)[nH]c3ncc(CC(=O)O)cc23)ccc1C [Example 189, 2-(3-(3-acrylamido-4-methylphenyl)-2-(4-(4-methylpiperazin-1-yl)phenyl)-1H-pyrrolo[2,3-b]pyridin-5-yl)acetic acid 2,2,2-trifluoroacetate] | ≤ 100 | ≤ 100 | ≤ 100 | > 10000 | > 10000 | > 10000 | > 10000
C=CS(=O)(=O)Nc1cc(-c2c(-c3ccc(N4CCN(C)CC4)cc3)[nH]c3nccc(Cl)c23)ccc1C [Example 145, N-(5-(4-chloro-2-(4-(4-methylpiperazin-1-yl)phenyl)-1H-pyrrolo[2,3-b]pyridin-3-yl)-2-methylphenyl)ethenesulfonamide 2,2,2-trifluoroacetate] | ≤ 100 | ≤ 100 | ≤ 100 | 500 to 1000 | 1000 to 100000 | 500 to 1000 | 100 to 500
C=CC(=O)Nc1cc(-c2c(-c3cnc(N4CCN(C)CC4)nc3)[nH]c3ncc(C(=O)OC(C)C)cc23)ccc1C [Example 175, isopropyl 3-(3-acrylamido-4-methylphenyl)-2-(2-(4-methylpiperazin-1-yl)pyrimidin-5-yl)-1H-pyrrolo[2,3-b]pyridine-5-carboxylate] | ≤ 100 | 100 to 500 | 100 to 500 | 1000 to 10000 | 1000 to 100000 | 1000 to 10000 | 1000 to 100000
C=CC(=O)Nc1cc(-c2c(-c3ccc(N4CCN(C)CC4)cc3)[nH]c3ncc(C(=O)OC4CCCC4)cc23)ccc1C [Example 139, cyclopentyl 3-(3-acrylamido-4-methylphenyl)-2-(4-(4-methylpiperazin-1-yl)phenyl)-1H-pyrrolo[2,3-b]pyridine-5-carboxylate] | ≤ 100 | ≤ 100 | 100 to 500 | 500 to 1000 | 1000 to 100000 | 500 to 1000 | 100 to 500
C=CC(=O)Nc1cc(-c2c(-c3ccc(OCCO)cc3)[nH]c3ncc(C(=O)OC(C)C)cc23)ccc1C [Example 178, isopropyl 3-(3-acrylamido-4-methylphenyl)-2-(4-(2-hydroxyethoxy)phenyl)-1H-pyrrolo[2,3-b]pyridine-5-carboxylate] | ≤ 100 | 100 to 500 | 100 to 500 | 500 to 1000 | 1000 to 100000 | 1000 to 10000 | 1000 to 100000
C=CC(=O)N1CCc2ccc(-c3c(-c4ccc(OCCN5CCCC5)cc4)[nH]c4nccc(OCC)c34)cc21 [Example 107, 1-(6-(4-ethoxy-2-(4-(2-(pyrrolidin-1-yl)ethoxy)phenyl)-1H-pyrrolo[2,3-b]pyridin-3-yl)indolin-1-yl)prop-2-en-1-one] | ≤ 100 | ≤ 100 | ≤ 100 | 100 to 500 | 500 to 1000 | 100 to 500 | ≤ 100
C=CC(=O)Nc1cc(-c2c(-c3ccc(N4CCN(C)CC4)cc3)[nH]c3ncc(C(=O)OC4CCCCC4)cc23)ccc1C [Example 137, cyclohexyl 3-(3-acrylamido-4-methylphenyl)-2-(4-(4-methylpiperazin-1-yl)phenyl)-1H-pyrrolo[2,3-b]pyridine-5-carboxylate] | ≤ 100 | ≤ 100 | 100 to 500 | 500 to 1000 | 1000 to 100000 | 500 to 1000 | 100 to 500
C=CC(=O)Nc1cc(-c2c(-c3ccc(N4CCN(C)CC4)cc3)[nH]c3ncc(CC(=O)OC)cc23)ccc1C [Example 195, methyl 2-(3-(3-acrylamido-4-methylphenyl)-2-(4-(4-methylpiperazin-1-yl)phenyl)-1H-pyrrolo[2,3-b]pyridin-5-yl)acetate] | ≤ 100 | ≤ 100 | ≤ 100 | 100 to 500 | 1000 to 100000 | 100 to 500 | 100 to 500
